Patent publication US11311524B2, “Pharmaceutical composition used for treatment of HTLV-1-associated myelopathy” (DAIICHI SANKYO COMPANY, LIMITED, priority 2017, dated 2022)
Read-outs that look alike come from different tables or passages of the source.

Tests used:
HAM patient-derived PBMC = experiment: Autoproliferation (3H-thymidine incorporation) of HAM patient-derived PBMC without stimulation; format: cell-based, human; conditions: for GI50: Homo sapiens, 6 days culture, 3H-thymidine; for Suppression of autoproliferation activity of HAM patient-derived PBMC: no stimulation, relative to DMSO group
Method: PBMC taken from 8 HAM patients were suspended in culture mediums (RPMI1640 culture medium (wako) containing 10% FBS (GIBCO)), seeded in a 96-well round-bottom plate in a ratio of 1×10^5 cells per well (3 wells were used for each concentration), and compound A or compound B was added so as to provide a final concentration of 1, 10, 100 or 1000 nM. Culture was carried out at 37° C. in 5% CO2 conditions for 6 days. The DMSO treatment group and the PSL (1 μg/mL) treatment group were used as controls. Day 6 after initiation of culture, 1 μCi ^3H-thymidine was added to each well and culture was carried out at 37° C., in 5% CO2 conditions for 16 hours. Thereafter, the cultured cells were allowed to adsorb to a glass filter (Printed Filtermat A, PerkinElmer) by a cell harvester (Tomtec MH3, PerkinElmer), dried and impregnated with solid scintillator Meltilex-A (PerkinElmer). The amount of the ^3H-thymidine incorporated in the cells was measured by use of MicroBeta (WALLAC MicroBeta TriLux 1450-021) (Yamano et al., PLoS One. 2009, 4(8): e6517). Based on the average count of ^3H-thymidine in the DMSO treatment group of HAM patients' PBMC as 100%, the relative values of the groups treated with compound A, compound B and PSL (1 μg/mL) were obtained by calculation, and then, an average value of 8 HAM patient cases was obtained. A significance test was carried out in accordance with the Friedman test of GraphPad Prism6 (MDF).
The number of patients was increased to 16 and the same experiment as above was carried out.
Effect on HAM patient-derived PBMC was checked in the same manner as in the above Example except that an EZH2 inhibitor was used in place of compounds A and B.
As the EZH2 inhibitor, GSK126 (CAS No.: 1346574-57-9) and E7438 (CAS No.: 1403254-99-8) were used. The concentration for treatment was 1, 10, 100, 1000 or 10000 nM in terms of final concentration. In the experiment, PBMC samples taken from the 8 persons before the number of cases increased in the above were used.

HCT-5 cells [1] = experiment: Apoptosis of HCT-5 cells (Annexin V-PE / 7-AAD, FACS); format: cell-based, human; conditions: HCT-5, 1 μM, 21 days
Method: (§1) In this Example, experiments were carried out using the cells cultured for 21 days in Example 5. To detect apoptotic cells in the cells cultured for 21 days by adding 1 μM of compound A or compound B, the cells were stained by use of PE Annexin V apoptosis Detection Kit I (BD) and analyzed by FACS. In this analysis, the viable cells were detected based on FSC (forward scatter)-SSC (side scatter) plots. The viable cells were analyzed by Annexin V-PE (annexin V) and 7-AAD (7-amino actinomycin D). Early apoptotic cells were detected as Annexin V (+) 7-AAD (−) cells. The results were as shown in FIG. 8 (HCT-4 cells) and FIG. 9 (HCT-5 cells).

HCT-5 cells [2] = experiment: Proliferation/viability of HTLV-1 infected cell line HCT-5 (CCK-8); format: cell-based, human; conditions: for Viability of HTLV-1 infected cells vs DMSO group: HCT-5, 1 μM, up to 21 days culture; for GI50: Homo sapiens, 336 h, 14 days culture, CCK-8
Method: HCT-4 and HCT-5, which were HTLV-1 infected cell lines established from the cerebrospinal fluid of HAM patients, were donated from a professor, Tatsufumi Nakamura of the Nagasaki International University. HCT-4 was cultured in RPMI1640 culture medium containing 10% FBS (GIBCO), a 1% penicillin-streptomycin solution (Wako) and 100 U/mL IL-2 (Cell Science & Technology Institute, Inc.); whereas HCT-5 was cultured by using 10% FBS, 1% penicillin-streptomycin solution, 1% L-glutamine (SIGMA) and 200 U/mL IL-2. HCT-4 (3×10^6 cells) or HCT-5 (2.5×10^6 cells) were seeded in a culture medium (20 mL) in a 75 cm^2-culture flask. DMSO was added and compound A or B was added so as to provide a final concentration of 1 μM and culture was carried out at 37° C. in 5% CO2 conditions for 21 days while repeating subculture. In the subculture, a culture solution containing HCT-4 treated with DMSO so as to correspond to 3×10^6 cells, whereas a culture solution containing HCT-5 treated with DMSO so as to correspond to 2.5×10^6 cells were taken and each added to a new culture medium to obtain a final volume of 20 mL, and then, further compound A or B was added so as to obtain the same concentration as above. Day 7, 14 and 21 after initiation of culture, cells were recovered from the culture solution and the density of the cells was measured. In this manner, the effect of compound A or B on cell proliferation was examined. The density of cells was determined by seeding cultured cells in a 96-well plate in a volume of 100 μL per well, adding 10 μL of Cell counting kit-8 (CCK-8) (Dojindo Laboratories laboratory) per well, incubating the cells at 37° C. for 3 hours and measuring absorbance at 450 nm by a plate reader (iMark Microplate Reader, Biorad). The proliferation rates of cell groups treated with compound A or compound B were each calculated based on the cell group treated with DMSO as a control. Next, in a 6-well plate, HCT-4 (4.5×10^5 cells) or HCT-5 (3.75×10^5 cells) were seeded. A solution of compound A or B prepared with DMSO was serially diluted (4-fold dilution from 10000 nM was serially repeated 8 times) and added thereto. The cells were repeatedly subcultured at intervals of 3 to 4 days in a culture solution of 3 mL in total at 37° C. in 5% CO2 condition for 14 days. […] The cells cultured for 14 days in individual conditions were recovered and the density of the cells were measured. […] The density of cells was determined by seeding the cultured cells (100 μL) per well in a 96-well plate, adding 10 μL of CCK-8 per well, incubating the cells at 37° C. for 3 hours and measuring absorbance at 450 nm by a plate reader. The proliferation rate of a group treated with compound A or compound B was calculated based on the group treated with DMSO as a control.

HCT-4 cells = experiment: Apoptosis of HCT-4 cells (Annexin V-PE / 7-AAD, FACS); format: cell-based, human; conditions: HCT-4, 1 μM, 21 days
Method: as §1

EZH2 = EZH2 (Homo sapiens, UniProt Q15910); conditions: from WO2015/141616; cited from earlier work
Chain of EZH2 (Q15910 whole entry): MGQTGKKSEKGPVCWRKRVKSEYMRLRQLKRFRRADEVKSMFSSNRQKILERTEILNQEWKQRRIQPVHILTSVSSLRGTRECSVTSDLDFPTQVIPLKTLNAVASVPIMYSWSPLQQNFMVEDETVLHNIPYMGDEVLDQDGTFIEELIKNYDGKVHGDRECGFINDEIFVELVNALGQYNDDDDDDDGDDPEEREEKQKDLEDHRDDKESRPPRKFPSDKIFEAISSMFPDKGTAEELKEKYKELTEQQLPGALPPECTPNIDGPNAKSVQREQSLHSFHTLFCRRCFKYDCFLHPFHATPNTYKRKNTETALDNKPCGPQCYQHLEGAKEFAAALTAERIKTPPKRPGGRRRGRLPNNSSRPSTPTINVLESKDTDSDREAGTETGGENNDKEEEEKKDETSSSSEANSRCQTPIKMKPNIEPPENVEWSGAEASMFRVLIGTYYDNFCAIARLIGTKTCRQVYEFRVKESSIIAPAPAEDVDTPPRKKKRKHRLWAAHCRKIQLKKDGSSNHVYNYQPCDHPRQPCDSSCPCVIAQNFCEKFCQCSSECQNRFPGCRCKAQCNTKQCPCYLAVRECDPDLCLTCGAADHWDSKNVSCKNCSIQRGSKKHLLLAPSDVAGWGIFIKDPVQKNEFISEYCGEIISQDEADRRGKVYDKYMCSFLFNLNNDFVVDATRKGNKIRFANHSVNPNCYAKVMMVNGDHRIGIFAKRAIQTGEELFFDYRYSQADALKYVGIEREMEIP
Chain of EZH2 (O75530 whole entry partner): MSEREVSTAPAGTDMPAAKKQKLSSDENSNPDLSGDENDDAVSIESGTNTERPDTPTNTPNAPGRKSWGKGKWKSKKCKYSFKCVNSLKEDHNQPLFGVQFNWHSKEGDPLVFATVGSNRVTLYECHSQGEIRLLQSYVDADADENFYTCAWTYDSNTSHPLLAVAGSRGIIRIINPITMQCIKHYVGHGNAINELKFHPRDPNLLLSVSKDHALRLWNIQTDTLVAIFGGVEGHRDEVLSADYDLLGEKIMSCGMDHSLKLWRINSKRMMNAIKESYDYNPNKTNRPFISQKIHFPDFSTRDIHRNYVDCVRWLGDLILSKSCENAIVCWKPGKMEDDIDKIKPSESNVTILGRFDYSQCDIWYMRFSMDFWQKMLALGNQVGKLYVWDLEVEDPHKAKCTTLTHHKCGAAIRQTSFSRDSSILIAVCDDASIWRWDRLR
Chain of EZH2 (Q15022 whole entry partner): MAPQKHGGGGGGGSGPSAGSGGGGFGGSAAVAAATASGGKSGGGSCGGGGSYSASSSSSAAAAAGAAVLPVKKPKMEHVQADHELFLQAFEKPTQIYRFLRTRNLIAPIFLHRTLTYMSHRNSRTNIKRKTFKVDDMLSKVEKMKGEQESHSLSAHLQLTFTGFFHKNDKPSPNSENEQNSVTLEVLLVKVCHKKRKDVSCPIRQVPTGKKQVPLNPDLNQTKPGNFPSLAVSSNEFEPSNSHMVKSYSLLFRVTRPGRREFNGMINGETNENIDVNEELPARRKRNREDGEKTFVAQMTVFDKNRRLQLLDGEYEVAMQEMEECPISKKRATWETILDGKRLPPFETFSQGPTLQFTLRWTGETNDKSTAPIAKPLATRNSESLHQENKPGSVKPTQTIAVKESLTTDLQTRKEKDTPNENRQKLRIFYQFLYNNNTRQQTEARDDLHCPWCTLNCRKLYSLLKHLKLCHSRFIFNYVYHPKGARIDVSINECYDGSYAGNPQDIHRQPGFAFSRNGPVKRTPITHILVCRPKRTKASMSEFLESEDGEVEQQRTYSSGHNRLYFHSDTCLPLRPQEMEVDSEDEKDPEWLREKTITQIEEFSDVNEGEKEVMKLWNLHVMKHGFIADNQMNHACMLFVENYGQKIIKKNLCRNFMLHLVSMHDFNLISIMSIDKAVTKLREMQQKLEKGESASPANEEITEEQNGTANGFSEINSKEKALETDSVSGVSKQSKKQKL
Chain of EZH2 (Q09028 whole entry partner): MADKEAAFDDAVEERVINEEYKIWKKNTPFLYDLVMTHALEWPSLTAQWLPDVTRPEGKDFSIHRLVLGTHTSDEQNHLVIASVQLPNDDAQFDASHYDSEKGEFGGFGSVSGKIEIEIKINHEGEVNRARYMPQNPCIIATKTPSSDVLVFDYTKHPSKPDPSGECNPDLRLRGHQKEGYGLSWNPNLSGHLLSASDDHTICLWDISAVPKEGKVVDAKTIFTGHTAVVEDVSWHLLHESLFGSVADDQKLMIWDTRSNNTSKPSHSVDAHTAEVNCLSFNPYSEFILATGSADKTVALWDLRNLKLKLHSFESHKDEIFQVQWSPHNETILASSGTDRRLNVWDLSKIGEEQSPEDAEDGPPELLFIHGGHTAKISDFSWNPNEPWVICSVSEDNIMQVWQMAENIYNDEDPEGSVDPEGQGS

[3] = PBMC of 8 HAM patients, read-out: GI50, autoproliferation activity of HAM patient-derived PBMC
[4] = PBMC of 16 HAM patients, read-out: GI50, spontaneous proliferation activity of HAM patient-derived PBMC

Compound	GI50 (HAM patient-derived PBMC; [3]) [nM]	GI50 (HAM patient-derived PBMC; [4]) [nM]	Suppression of autoproliferation activity of HAM patient-derived PBMC (HAM patient-derived PBMC)	Number of early apoptotic cells (Annexin V (+) 7-AAD (−)) (HCT-5 cells [1])	Number of viable cells (FSC-SSC) (HCT-5 cells [1])	Viability of HTLV-1 infected cells vs DMSO group (HCT-5 cells [2])	GI50 (HCT-5 cells [2]) [nM]	Number of early apoptotic cells (Annexin V (+) 7-AAD (−)) (HCT-4 cells)	Number of viable cells (FSC-SSC) (HCT-4 cells)	Inhibition of enzyme activity of EZH2 (EZH2)
Cc1cc(C)c(CNC(=O)c2cc(Br)c3c(c2C)O[C@@](C)([C@H]2CC[C@H](N(C)C)CC2)O3)c(=O)[nH]1 [compound A, (2R)-7-bromo-2-[trans-4-(dimethylamino)cyclohexyl]-N-[(4,6-dimethyl-2-oxo-1,2-dihydropyridin-3-yl)methyl]-2,4-dimethyl-1,3-benzodioxole-5-carboxamide]	73	45.6	suppressed autoproliferation activity of PBMC in all the eight HAM patient cases, in a concentration-dependent manner	the number of early apoptotic cells increased	the number of viable cells decreases	significantly reduce the viability	185	the number of early apoptotic cells increased	the number of viable cells decreases	inhibit
Cc1cc(C)c(CNC(=O)c2cc(Cl)c3c(c2C)O[C@@](C)([C@H]2CC[C@H](N(C)C)CC2)O3)c(=O)[nH]1 [compound B, (2R)-7-chloro-2-[trans-4-(dimethylamino)cyclohexyl]-N-[(4,6-dimethyl-2-oxo-1,2-dihydropyridin-3-yl)methyl]-2,4-dimethyl-1,3-benzodioxole-5-carboxamide]	33.9	25.9	suppressed autoproliferation activity of PBMC in all the eight HAM patient cases, in a concentration-dependent manner	the number of early apoptotic cells increased	the number of viable cells decreases	significantly reduce the viability	90.6	the number of early apoptotic cells increased	the number of viable cells decreases	inhibit
